Test results: US20230077362A1 (CORTEVA AGRISCIENCE LLC, priority 2019, published 2023)

What was measured:
[1] = test system: Beet Armyworm (Spodoptera exigua) ("BAW"), second instar larvae; assay: Bioassay on beet armyworm (BAW), 128-well diet tray assay; assay type: in vivo; conditions: Spodoptera exigua, read-out: BAW (Biological Results, rating)
Outline: (§1)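 Each value represents average percent mortality from eight wells. Larvae were kept in clear-covered trays at 25° C. for five to seven days on a 14-hour light, 10-hour dark schedule before scoring.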

[2] = test system: Cabbage Looper (Trichoplusia ni) ("CL"), second instar larvae; assay: Bioassay on cabbage looper (CL), 128-well diet tray assay; assay type: in vivo; conditions: Trichoplusia ni, read-out: CL (Biological Results, rating)
Outline: as §1

CC(C)c1ccc(N(C)C)cc1N1C(=O)CS/C1=N\C(=O)Nc1ccc(-c2ncn(-c3ccc(OC(F)(F)F)cn3)n2)cc1Cl [Compound J253, (Z)-1-(2-Chloro-4-(1-(5-(trifluoromethoxy)pyridin-2-yl)-1H-1,2,4-triazol-3-yl)phenyl)-3-(3-(5-(dimethylamino)-2-isopropylphenyl)-4-oxothiazolidin-2-ylidene)urea]
pest or weed control at 50 µg/cm2 [1]: 50 to 100% | pest or weed control at 50 µg/cm2 [2]: 50 to 100%

CCCc1ccc(N(C)C)cc1N1C(=O)CS/C1=N\C(=O)Nc1ccc(-c2ncn(-c3ccc(OC(F)(F)F)cn3)n2)cc1C [Compound J254, (Z)-1-(3-(5-(Dimethylamino)-2-propylphenyl)-4-oxothiazolidin-2-ylidene)-3-(2-methyl-4-(1-(5-(trifluoromethoxy)pyridin-2-yl)-1H-1,2,4-triazol-3-yl)phenyl)urea]
pest or weed control at 50 µg/cm2 [1]: 50 to 100% | pest or weed control at 50 µg/cm2 [2]: 50 to 100%

Cc1ccc(OCCC(F)(F)F)c(N2C(=O)CS/C2=N\C(=O)Nc2ccc(-c3ncn(-c4ccc(OC(F)(F)F)cn4)n3)cc2C)c1 [Compound J255, (Z)-1-(3-(5-Methyl-2-(3,3,3-trifluoropropoxy)phenyl)-4-oxothiazolidin-2-ylidene)-3-(2-methyl-4-(1-(5-(trifluoromethoxy)pyridin-2-yl)-1H-1,2,4-triazol-3-yl)phenyl)urea]
pest or weed control at 50 µg/cm2 [1]: 50 to 100% | pest or weed control at 50 µg/cm2 [2]: 50 to 100%

Cc1ccc(OCCC(F)(F)F)c(N2C(=O)CS/C2=N\C(=O)Nc2ccc(-c3ncn(-c4ccc(OC(F)(F)F)cn4)n3)cc2F)c1 [Compound J257, (Z)-1-(2-Fluoro-4-(1-(5-(trifluoromethoxy)pyridin-2-yl)-1H-1,2,4-triazol-3-yl)phenyl)-3-(3-(5-methyl-2-(3,3,3-trifluoropropoxy)phenyl)-4-oxothiazolidin-2-ylidene)urea]
pest or weed control at 50 µg/cm2 [1]: 50 to 100% | pest or weed control at 50 µg/cm2 [2]: 50 to 100%

CCCc1ccc(N(C)C)cc1N1C(=O)CS/C1=N\C(=O)Nc1ccc(-c2ncn(-c3ccc(OC(F)(F)F)cn3)n2)cc1F [Compound J258, (Z)-1-(3-(5-(Dimethylamino)-2-propylphenyl)-4-oxothiazolidin-2-ylidene)-3-(2-fluoro-4-(1-(5-(trifluoromethoxy)pyridin-2-yl)-1H-1,2,4-triazol-3-yl)phenyl)urea]
pest or weed control at 50 µg/cm2 [1]: 50 to 100% | pest or weed control at 50 µg/cm2 [2]: 50 to 100%

Cc1ccc(C(C)C)c(N2C(=O)CS/C2=N\C(=O)Nc2ccc(-c3ncn(-c4ccc(OC(F)(F)F)cn4)n3)cc2C#N)c1 [Compound J259, (Z)-1-(2-Cyano-4-(1-(5-(trifluoromethoxy)pyridin-2-yl)-1H-1,2,4-triazol-3-yl)phenyl)-3-(3-(2-isopropyl-5-methylphenyl)-4-oxothiazolidin-2-ylidene)urea]
pest or weed control at 50 µg/cm2 [1]: 50 to 100% | pest or weed control at 50 µg/cm2 [2]: 50 to 100%

Cc1ccc(C(C)C)c(N2C(=O)CS/C2=N\C(=O)Nc2ccc(-c3ncn(-c4ccc(OC(F)(F)F)cn4)n3)cc2C(F)(F)F)c1 [Compound J260, (Z)-1-(3-(2-Isopropyl-5-methylphenyl)-4-oxothiazolidin-2-ylidene)-3-(4-(1-(5-(trifluoromethoxy)pyridin-2-yl)-1H-1,2,4-triazol-3-yl)-2-(trifluoromethyl)phenyl)urea]
pest or weed control at 50 µg/cm2 [1]: 50 to 100% | pest or weed control at 50 µg/cm2 [2]: 50 to 100%

CC(C)c1cc(F)c(N(C)C)cc1N1C(=O)CS/C1=N\C(=O)Nc1ccc(-c2ncn(-c3ccc(OC(F)(F)F)cn3)n2)cc1F [Compound J261, (Z)-1-(3-(5-(Dimethylamino)-4-fluoro-2-isopropylphenyl)-4-oxothiazolidin-2-ylidene)-3-(2-fluoro-4-(1-(5-(trifluoromethoxy)pyridin-2-yl)-1H-1,2,4-triazol-3-yl)phenyl)urea]
pest or weed control at 50 µg/cm2 [1]: 50 to 100% | pest or weed control at 50 µg/cm2 [2]: 50 to 100%
